Source: patent US6468987B1, “Nutritional product for a person having ulcerative colitis” (Abbott Laboratories, priority 1994, dated 2002)
Marks after values point to notes of the source that are not given here.

What was measured:
[1] = tested on: distal colitis induced by peptidoglycan/polysaccharide (PG/PS); test: PG/PS-induced acute and chronic distal colitis in rats; type: in vivo, Female Lewis rats
Procedure: For these reasons, a model of acute and chronic distal colitis in rats was developed based upon a previously published method in which purified bacterial cell wall polymers (derived from Group A streptococci) are injected intramurally into the distal colon of genetically-susceptible rats. Sartor et al., “Granulomatus Entercolitis Induced by Purified Bacterial Cell Wall Fragments”, GASTROENTEROLOGY, Vol. 89, pages 587-595 (1985). This model produces an acute and chronic inflammation characterized by the infiltration of large numbers of inflammatory cells, enhanced mucosal permeability, interstitial fibrosis, and mucosal thickening as well as the extraintestinal manifestations of arthritis, hepatic and splenic granulomas. Unlike most models of colitis, the inflammation induced in this model promoting mucosal and submucosal injury rather than the injury causing the inflammation.
In Experiment 2 the objectives were: (a) to determine whether this model of colitis responds to sulfasalazine (SAZ) and (b) to assess the effects of specially formulated enteral diets on the injury and inflammation observed in the colon, liver and spleen.
Female Lewis rats (150-175 g) were maintained in a controlled temperature and light-dark cycle (12 hours:12 hours) and housed in wire-mesh bottomed cages and given water and standard laboratory rat chow ad libitum. A total of 48 rats were divided into 6 groups of 8 rats each consisting of a sham (rats receiving Diet #1 {base diet} with no peptidoglycan/polysaccharide {PG/PS} injection) control group, a chow group and 4 groups of rats placed on 4 different polymeric diets (Table 6). Rats received either chow or polymeric diets (320 kcals/kg/day or 60 mL of liquid diet/day) for 7 days preceding induction of colitis. Distal colitis was induced by a modification of the method of Sartor et al in which multiple sites (8-9) along the distal colon were injected intramurally with 60 ul/site to deliver a dose of peptidoglycan/polysaccharide (PG/PS) of 12.5 ug/g body weight. The albumin (sham) control group received the same number of injections of human serum albumin into the distal colon.
Total dietary intake and body weights of the control and liquid diet groups were recorded for each 24 hour period during the course of the 4 week experiment (1 week prior to the induction of colitis and 3 weeks following PG/PS or albumin injection).
To assess the effects of SAZ in this model, female Lewis rats were orally administered SAZ immediately following the induction of colitis. Rats were given chow ad libitum for the duration of the four week study period. Similar measurements were assessed as described below.
All rats receiving nutritional therapy or SAZ were euthanized with an overdose of pentobarbital and the distal colon and cecum were excised and opened longitudinally. The length and weight of the perfused segment were recorded and the tissue divided longitudinally into three strips for wet-to-dry ratios, histology and myeloperoxidase (MPO) determinations. Colonic MPO activity was determined in which 3,3′ 5,5′ tetramethylbenzidine was used as the electron donating substrate and hexadecyltrimethylammonium hydroxide was used as the detergent. Spleen and liver weights were recorded. Circulating levels of nitrate and nitrite were also quantified using the Griess reagent and used as indices of immune system activation (i.e. activation of the reticuloendothelial system {nitric oxide synthase}). The studies were analyzed as a completely randomized design. Treatment differences were separated using an F-protected least significant difference (LSD) method. In both studies additional chow fed control animals that were treated under laboratory conditions described above were incorporated in the statistical analysis.

[2] = tested on: active ulcerative colitis; conditions: dietary supplementation; cited from earlier work
[3] = SAZ orally from induction of colitis, chow fed PG/PS rats, least square means
[4] = oral SAZ vs PG/PS treated animals and sham control
[5] = oral SAZ vs chow fed group receiving PG/PS

Row | Compound | COLON WT [1, 3] | Liver wt [1, 3] | MPO ACTIVITY [1, 3] | Spleen wt [1, 3] | liver weight, in words [1, 4] | spleen weight, in words [1, 4] | colon weight, in words [1, 5] | increases in MPO activity, in words [1, 5] | histological inspection of the SAZ-treated tissue ([1]; oral SAZ, PG/PS colitis) | eicosanoid levels from rectal dialysate fluid [2]
1 | O=C(O)c1cc(/N=N/c2ccc(S(=O)(=O)Nc3ccccn3)cc2)ccc1O [SAZ, sulfasalazine] | .021 ± .004^a,b g dry wt/cm | 34.0 ± 3.6^b mg/g bw | 1.40 ± 2.9^b units/cm colon | 2.92 ± 1.3^b mg/g bw | significantly lower than the PG/PS treated animals and comparable to the sham control | significantly lower than the PG/PS treated animals and comparable to the sham control | tended to reduce | significantly attenuated | inhibition of leukocyte infiltration and fibrosis | –
2 | vitamin E | – | – | – | – | – | – | – | – | – | not to promote changes
